Source: paper PMC7367873, “Dissecting the sequence determinants for dephosphorylation by the catalytic subunits of phosphatases PP1 and PP2A” (Nature Communications, 2020)

What was measured:
Format in all cases: cell-based, human
[1] = tested on: mKate2-GAB2 localization in SW-480 cells; experiment: GAB2 recruitment to the plasma membrane, live-cell confocal microscopy, SW-480; details: SW-480, starved, 12 min; EGF 100 ng/mL; PDP-Nal/PDPm-Nal 50 µM; n = 20/19/26 cells for EGF/PDP-Nal/PDPm-Nal
Method: (§1) The cells were seeded on 8-well ibiTreat µslides (Ibidi) and transfected as described in the respective section. In order to serum-starve cells for 45 min to 1 h before imaging, cells were washed twice with warm PBS and cultivated in 200 µL DMEM without FBS and phenol red (Gibco) supplemented with 1 g/L L-glutamine and 1% penicillin/streptomycin. For imaging, cells were then mounted in an Okolab stage incubator system (37 °C, 5% CO2 using an H101-CRYO-BL temperature controller, CO2-O2 UNIT-BL gas controller, H101-HM active humidity controller and incubation chamber H101-NIKON-TI-S-ER). All images were acquired with the A1R Confocal Scanning System equipped on a Nikon Ti-E inverted microscope installed with an Apo TIRF 100x DIC N2 1.49 NA Oil objective. […] Images were acquired using the GaAsP detectors controlled with the NIS Elements 4.50 operating software. Time-lapse-experiments consisted of an image acquisition interval of 15 s for at least 12 min for each sample condition separately using an exposure time of 0.5 frames per second. […]
(§2) Supplementary Figure 8. […] For Caco-2 BBe1 the following number (n) of cells were analyzed: 19 (EGF), 13 (PDP-Nal), 13 (PDPm-Nal); for SW-480: 20 (EGF), 19 (PDP-Nal), […]

[2] = tested on: mKate2-GAB2 localization in HeLa Kyoto cells; experiment: GAB2 recruitment to the plasma membrane, live-cell confocal microscopy, HeLa Kyoto; details: starved, 5 min, EGF 100 ng/mL, PDP-Nal/PDPm-Nal 50 µM, n = 44/56/31 cells for EGF/PDP-Nal/PDPm-Nal
Method: The cells were seeded on 8-well ibiTreat µslides (Ibidi) and transfected as described in the respective section. In order to serum-starve cells for 45 min to 1 h before imaging, cells were washed twice with warm PBS and cultivated in 200 µL DMEM without FBS and phenol red (Gibco) supplemented with 1 g/L L-glutamine and 1% penicillin/streptomycin. For imaging, cells were then mounted in an Okolab stage incubator system (37 °C, 5% CO2 using an H101-CRYO-BL temperature controller, CO2-O2 UNIT-BL gas controller, H101-HM active humidity controller and incubation chamber H101-NIKON-TI-S-ER). All images were acquired with the A1R Confocal Scanning System equipped on a Nikon Ti-E inverted microscope installed with an Apo TIRF 100x DIC N2 1.49 NA Oil objective. […] Images were acquired using the GaAsP detectors controlled with the NIS Elements 4.50 operating software. Time-lapse-experiments consisted of an image acquisition interval of 15 s for at least 12 min for each sample condition separately using an exposure time of 0.5 frames per second. Cells were treated after frame 3 by adding 100 µL of starvation media (see above) with 300 ng/mL EGF (Gibco) or 150 µM PDP(m)-Nal resulting in final concentrations of 100 ng/mL for EGF and 50 µM for PDPs.
For image analysis, microscopy files were loaded into Fiji v2.0.0-rc-34/1.50a. […]

[3] = tested on: mKate2-GAB2 localization in Caco-2 BBe1 cells; experiment: GAB2 recruitment to the plasma membrane, live-cell confocal microscopy, Caco-2 BBe1; details: Caco-2 BBe1, starved, 12 min; EGF 100 ng/mL; PDP-Nal/PDPm-Nal 50 µM; n = 19/13/13 cells for EGF/PDP-Nal/PDPm-Nal
Method: as §1, §2

Measured: GAB2 recruitment to the plasma membrane

EGF: epidermal growth factor (Gibco)
GAB2 recruitment to the plasma membrane: all assays above
